Data: patent US7208517B1, “Endothelin antagonists” (Abbott Labortories, priority 1994, dated 2007)
Read-outs that look alike come from different tables or passages of the source.

Key:
ETA Receptor = target: T1, ETA Receptor (Rattus norvegicus, UniProt P26684); assay: [125I]ET-1 binding to membranes from MMQ cells (ETA receptor binding assay, Table 4); conditions: for inhibition at 1 µM: read-out: % Inhibition of ETA at 1 μM
T1 construct: endogenous in cells; host or cells: MMQ rat pituitary cells (membranes)
T1 sequence (P26684 21-426): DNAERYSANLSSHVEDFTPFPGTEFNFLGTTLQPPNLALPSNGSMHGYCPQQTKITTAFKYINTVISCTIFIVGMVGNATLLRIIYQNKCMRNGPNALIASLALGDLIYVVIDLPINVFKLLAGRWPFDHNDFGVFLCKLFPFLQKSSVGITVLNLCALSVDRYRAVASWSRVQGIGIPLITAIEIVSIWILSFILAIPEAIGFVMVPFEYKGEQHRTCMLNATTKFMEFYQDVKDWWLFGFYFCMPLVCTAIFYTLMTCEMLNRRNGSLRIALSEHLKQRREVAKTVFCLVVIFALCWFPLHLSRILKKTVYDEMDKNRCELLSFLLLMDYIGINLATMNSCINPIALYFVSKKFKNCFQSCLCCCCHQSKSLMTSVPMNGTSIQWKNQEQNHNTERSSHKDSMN

[1] = target: T2, ETB receptors of porcine cerebellar tissues (pET-B) (Sus scrofa, UniProt P35463); assay: ETA/ETB selectivity: (125I)ET-3 competition binding, ETB assay in porcine cerebellum membranes (pET-B)
T2 construct: porcine cerebellar tissues (known to contain ETB receptors); from tissue; host or cells: porcine cerebellum (membranes)
T2 sequence (P35463 27-443): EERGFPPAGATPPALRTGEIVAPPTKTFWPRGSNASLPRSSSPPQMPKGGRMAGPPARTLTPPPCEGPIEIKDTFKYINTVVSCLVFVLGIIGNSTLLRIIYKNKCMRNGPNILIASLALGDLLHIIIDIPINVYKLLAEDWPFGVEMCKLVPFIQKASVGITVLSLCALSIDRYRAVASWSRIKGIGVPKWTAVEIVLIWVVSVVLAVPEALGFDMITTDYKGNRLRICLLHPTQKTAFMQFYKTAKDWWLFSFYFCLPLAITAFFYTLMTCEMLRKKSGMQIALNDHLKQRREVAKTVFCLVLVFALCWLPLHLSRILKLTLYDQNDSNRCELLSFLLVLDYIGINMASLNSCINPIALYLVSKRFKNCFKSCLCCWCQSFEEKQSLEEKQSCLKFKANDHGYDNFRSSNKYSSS
Procedure: (§1) The mixture was centrifuged at 1000×g for 10 min. The supernatant was collected and centrifuged at 60,000×g for 60 min. The precipitate was resuspended in 20 mM Tris, pH 7.4 containing protease inhibitor and centrifuged again. The final membrane pellet was resuspended in 20 mM Tris, pH 7.4 containing protease inhibitors and stored at −80° C. until used. Protein content was determined by the Bio-Rad dye-binding protein assay.
(§2) Binding assays were performed in 96-well microtiter plates pretreated with 0.1% BSA. […] After incubation, unbound ligands were separated from bound ligands by a vacuum filtration method using glass-fiber filter strips in PHD cell harvesters (Cambridge Technology, Inc., MA), washing the filter strips three times with saline (1 mL). Nonspecific binding was determined in the presence of 1 μM ET-1. IC50 values are calculated using an average of at least two separate determinations.

[2] = target: T3, ETA receptor in MMQ cells (rET-A) (Rattus norvegicus, UniProt P26684); assay: ETA/ETB selectivity: (125I)ET-1 competition binding, ETA assay in MMQ cell membranes (rET-A)
T3 construct: endogenous in cells; host or cells: MMQ rat pituitary cells (membranes)
T3 sequence (P26684 21-426): T1 sequence (P26684 21-426)
Procedure: as §1, §2

[3] = test compound at 1 μM, 0.1 nM [125I]ET-1, MMQ cell membranes, 4 hours at 25° C.
[4] = MMQ cell membranes, 0.1 nM (125I)ET-1, read-out: rET-A IC50
[5] = porcine cerebellum membranes, 0.1 nM (125I)ET-3, read-out: pET-B IC50

| Compound | % Inhibition of ETA at 1 μM (ETA Receptor; [3]) [%] | inhibition at 1 µM (ETA Receptor; [3]) [%] | IC50 [2, 4] [µM] | other results |
| --- | --- | --- | --- | --- |
| CCCCN(CCCC)C(=O)CN1CC(c2ccc3c(c2)OCO3)C(C(=O)O)C1c1ccc(CC)cc1 (stereo not drawn) [Example 307, trans—trans-2-(4-Ethylphenyl)-4-(1,3-benzodioxol-5-yl)-1-[N,N-di(n-butyl)aminocarbonylmethyl]-pyrrolidine-3-carboxylic acid] | 92.2 | – | – | – |
| CCCCN(CCCC)C(=O)CN1CC(c2ccc3c(c2)OCO3)C(C(=O)O)C1CCOC (stereo not drawn) [Example 309, trans—trans-2-(2-Methoxyethyl)-4-(1,3-benzodioxol-5-yl)-1-[N,N-di(n-butyl)aminocarbonylmethyl]-pyrrolidine-3-carboxylic acid] | 80.7 | – | – | – |
| CCCCCS(=O)(=O)N(CC)CCN1CC(c2ccc3c(c2)OCO3)C(C(=O)O)C1c1ccc(OC)cc1 (stereo not drawn) [Example 310, trans,trans-2-(4-Methoxyphenyl)-4-(1,3-benzodioxol-5-yl)-1-(2-(N-ethyl-N-n-pentanesulfonylamino)ethyl)-pyrrolidine-3-carboxylic acid] | 87.1 | – | – | – |
| COc1ccc(C2C(C(=O)O)C(c3ccc4c(c3)OCO4)CN2CC(=O)N(C2CCCCC2)C2CCCCC2)cc1 (stereo not drawn) [Example 311, trans—trans-2-(4-Methoxyphenyl)-4-(1,3-benzodioxol-5-yl)-1-[N,N-dicyclohexylaminocarbonylmethyl]-pyrrolidine-3-carboxylic acid] | 92.3 | – | – | – |
| CCCN(CCN1CC(c2ccc3c(c2)OCO3)C(C(=O)O)C1c1ccc(OC)cc1)C(=O)OC(C)(C)C (stereo not drawn) [Example 312, trans—trans-2-(4-Methoxyphenyl)-4-(1,3-benzodioxol-5-yl)-1-[2-(N-propyl-N-tert-butoxycarbonylamino)ethyl]-pyrrolidine-3-carboxylic acid] | 88.2 | – | – | – |
| CCCCN(CCCC)C(=O)CN1CC(c2ccc3c(c2)OCO3)C(C(=O)O)C1c1ccc(OC)c(F)c1 (stereo not drawn) [Example 313, trans—trans-2-(4-Methoxy-3-fluorophenyl)-4-(1,3-benzodioxol-5-yl)-1-[N,N-di(n-butyl)aminocarbonylmethyl]-pyrrolidine-3-carboxylic acid] | 96.3 | – | – | – |
| CCCCCS(=O)(=O)N(CCC)CCN1CC(c2ccc3c(c2)OCO3)C(C(=O)O)C1CCC (stereo not drawn) [Example 314, trans,trans-2-(Propyl)-4-(1,3-benzodioxol-5-yl)-1-(2-(N-propyl-pentanesulfonylamino)ethyl)pyrrolidine-3-carboxylic acid] | 86.0 | – | – | – |
| COc1ccc(C2C(C(=O)O)C(c3ccc4c(c3)OCO4)CN2CC(=O)Nc2ccccc2)cc1 (stereo not drawn) [Example 495] | – | 95.9 | – | – |
| CCc1ccccc1C(NC(=O)CN1CC(c2ccc3c(c2)OCO3)C(C(=O)O)C1c1ccc(OCCOC(C)C)cc1)c1ccccc1C (stereo not drawn) [Example 559, trans,trans-2-[4-(2-Isopropopoxyethoxy)phenyl]-4-(1,3-benzodioxol-5-yl)-1-(N-((1-(o-tolyl)-1-(o-ethylphenyl)-methyl)amino)carbonylmethyl)-pyrrolidine-3-carboxylic acid] | 5.8 | – | – | – |
| CC(C)OCCOc1ccc(C2C(C(=O)O)C(c3ccc4c(c3)OCO4)CN2CC(=O)NN(c2ccccc2)C(C)(C)C)cc1 (stereo not drawn) [Example 560, trans,trans-2-(4-(2-(2-Propoxy)ethoxy)phenyl)-4-(1,3-benzodioxol-5-yl)-1-N-phenyl-N-t-butylhydrazino carbonylmethyl)-pyrrolidine-3-carboxylic acid] | 0 | – | – | – |
| COCCOc1ccc(C2C(C(=O)O)C(c3ccc4c(c3)OCO4)CN2CC(=O)NN(c2ccccc2)C(C)(C)C)cc1 (stereo not drawn) [Example 561, trans,trans-2-(4-(2-Methoxyethoxy)phenyl)-4-(1,3-benzodioxol-5-yl)-1-(N-phenyl-N-t-butylhydrazinocarbonylmethyl)-pyrrolidine-3-carboxylic acid] | 0 | – | – | – |
| CCCCN(CCCC)C(=O)CN1CC(c2ccc3c(c2)OCO3)C(C(=O)O)C1CC(C)CCC (stereo not drawn) [compound 502] | – | – | – | inhibition at 1 µM (ETA Receptor): 95.7%; IC50 [1]: 71 µM; IC50 [2]: 0.003 µM |
| CCCCN(CCCC)C(=O)CN1CC(c2cc(OC)c3c(c2)OCO3)C(C(=O)O)C1CC(C)(C)CCC (stereo not drawn) [compound 514] | – | 100 | 0.001 | IC50 [1]: 26 µM |
| CCCCN(CCCC)C(=O)CN1C[C@H](c2ccc3c(c2)OCO3)[C@@H](C(=O)O)[C@@H]1CCN1CCCC1=O [compound 520] | – | 97.4 | 0.0002 | IC50 [1, 5]: 28 µM |
| CCCC(CCC)N(C(=O)CN1C[C@H](c2ccc3c(c2)OCO3)[C@@H](C(=O)O)[C@@H]1CCN1CCCC1=O)c1ccc(F)c(C)c1 [compound 521] | – | 100 | 0.00067 | IC50 [1, 5]: 37 µM |
| CCCCN(CCCN(C)C)C(=O)CN1CC(c2ccc3c(c2)OCO3)C(C(=O)O)C1c1ccc(OC)cc1 (stereo not drawn) [compound 527] | – | 96.6 | 0.0079 | IC50 [1, 5]: 10 µM |
| CCCCN(CCC[N+](C)(C)C)C(=O)CN1CC(c2ccc3c(c2)OCO3)C(C(=O)O)C1c1ccc(OC)cc1 (stereo not drawn) [compound 528] | – | 98.3 | 0.011 | IC50 [1, 5]: 43 µM |
| CCCCN(CCCCN)C(=O)CN1CC(c2ccc3c(c2)OCO3)C(C(=O)O)C1c1ccc(OC)cc1 (stereo not drawn) [compound 529] | – | 98.1 | 0.0036 | IC50 [1, 5]: 6.3 µM |
| CCCCN(CCCC)C(=O)CN1C[C@H](c2cc(OC)c3c(c2)OCO3)[C@@H](C(=O)O)[C@@H]1CC(C)(C)CCC [compound 536] | – | 100 | 0.00052 | IC50 [1]: 17 µM |
| (2R,3R,4S)-(+)-2-(4-Methoxyphenyl)-4-(1,3-benzodioxol-5-yl)-1-(tert-butyloxycarbonyl-aminocarbonylmethyl)-pyrrolidine-3-carboxylic acid [Example 95D] | 82.1 | – | – | – |
